The target in this test is T1, human T-type channel alpha-1H (CaV 3.2) (Homo sapiens, UniProt O95180).
T1 construct: expressed in transfected cells; host or cells: HEK 293
As to the kind of experiment: Ca2+ Influx Assay (cell-based fluorescent, FDSS). The conditions noted are these: HEK 293 cells expressing human CaV 3.2. As to the method:
Inhibition of T-type calcium channel activity was determined by cell-based flu-orescent Ca^2+ influx assay, in which potassium ionophore was added to decrease resting membrane potential and extra-cellular high-K^+ stimulation was used to modulate the membrane potential of the cell. The changes in fluorescent signal were monitored by the cell imaging technology by Hamamatsu Photonics's Functional Drug Screening System (FDSS).
HEK 293 cells expressing the human T-type channel alpha-1H (CaV 3.2) were maintained in DMEM supplemented with 10% heat-inactivated FBS, 100 units/ml Penicillin, 100 microg/ml Streptomycin, 150 microg/ml Zeocin, 300 microg/ml Geneticin. The cells were grown in a 5% CO2 humidified incubator at 37° C.
• 1. Cells were harvested and seeded in a poly-D-lysine coated black-sided clear bottom 384-well plate at density of 10,000 cells/well at 24 hours prior to assay. • 2. Incubate at 37° C. in 5% CO2. Day Two: • 1. Wash each well with assay buffer (see below) and leave 20 RI using plate washer, ELx-405 Select CW (BIO-TEK). • 2. Add 20 μL of assay buffer containing 6 μM Fluo-4-AM (Molecular Probes) and 0.005% Pluronic F-127 to each well. • 3. Incubate the plate at 37° C. for 1 hour. • 4. Wash each well assay buffer (see below) and leave 20 μl using plate washer, ELx-405 Select CW (BIO-TEK). • 5. Add 10 μl of compound solution into each well by FDSS6000 and leave the plate for 4.5 min, and then add 10 μl of potassium ionophore solution. • 6. Add 20 μl of high-K^+ depolarizing solution (see below) and monitor the change of fluorescent signal.
The IC50 values for compounds of the present invention were determined from 7-point dose-response studies. Curves were generated using the average of duplicate wells for each data point. Finally, the IC50 values are calculated with the best-fit dose curve determined by XLfit.

Each structure is given as a SMILES string. Bounds are passed on as bounds.

Data on 26 compounds can be found in patent US9101616B2, “Aryl substituted carboxamide derivatives as calcium or sodium channel blockers” (RaQualia Pharma Inc., priority 2009, dated 2015).

For orientation: IC50 means the midpoint of a concentration-inhibition curve. Higher therefore signals weaker potency.

T1 sequence (O95180 whole entry): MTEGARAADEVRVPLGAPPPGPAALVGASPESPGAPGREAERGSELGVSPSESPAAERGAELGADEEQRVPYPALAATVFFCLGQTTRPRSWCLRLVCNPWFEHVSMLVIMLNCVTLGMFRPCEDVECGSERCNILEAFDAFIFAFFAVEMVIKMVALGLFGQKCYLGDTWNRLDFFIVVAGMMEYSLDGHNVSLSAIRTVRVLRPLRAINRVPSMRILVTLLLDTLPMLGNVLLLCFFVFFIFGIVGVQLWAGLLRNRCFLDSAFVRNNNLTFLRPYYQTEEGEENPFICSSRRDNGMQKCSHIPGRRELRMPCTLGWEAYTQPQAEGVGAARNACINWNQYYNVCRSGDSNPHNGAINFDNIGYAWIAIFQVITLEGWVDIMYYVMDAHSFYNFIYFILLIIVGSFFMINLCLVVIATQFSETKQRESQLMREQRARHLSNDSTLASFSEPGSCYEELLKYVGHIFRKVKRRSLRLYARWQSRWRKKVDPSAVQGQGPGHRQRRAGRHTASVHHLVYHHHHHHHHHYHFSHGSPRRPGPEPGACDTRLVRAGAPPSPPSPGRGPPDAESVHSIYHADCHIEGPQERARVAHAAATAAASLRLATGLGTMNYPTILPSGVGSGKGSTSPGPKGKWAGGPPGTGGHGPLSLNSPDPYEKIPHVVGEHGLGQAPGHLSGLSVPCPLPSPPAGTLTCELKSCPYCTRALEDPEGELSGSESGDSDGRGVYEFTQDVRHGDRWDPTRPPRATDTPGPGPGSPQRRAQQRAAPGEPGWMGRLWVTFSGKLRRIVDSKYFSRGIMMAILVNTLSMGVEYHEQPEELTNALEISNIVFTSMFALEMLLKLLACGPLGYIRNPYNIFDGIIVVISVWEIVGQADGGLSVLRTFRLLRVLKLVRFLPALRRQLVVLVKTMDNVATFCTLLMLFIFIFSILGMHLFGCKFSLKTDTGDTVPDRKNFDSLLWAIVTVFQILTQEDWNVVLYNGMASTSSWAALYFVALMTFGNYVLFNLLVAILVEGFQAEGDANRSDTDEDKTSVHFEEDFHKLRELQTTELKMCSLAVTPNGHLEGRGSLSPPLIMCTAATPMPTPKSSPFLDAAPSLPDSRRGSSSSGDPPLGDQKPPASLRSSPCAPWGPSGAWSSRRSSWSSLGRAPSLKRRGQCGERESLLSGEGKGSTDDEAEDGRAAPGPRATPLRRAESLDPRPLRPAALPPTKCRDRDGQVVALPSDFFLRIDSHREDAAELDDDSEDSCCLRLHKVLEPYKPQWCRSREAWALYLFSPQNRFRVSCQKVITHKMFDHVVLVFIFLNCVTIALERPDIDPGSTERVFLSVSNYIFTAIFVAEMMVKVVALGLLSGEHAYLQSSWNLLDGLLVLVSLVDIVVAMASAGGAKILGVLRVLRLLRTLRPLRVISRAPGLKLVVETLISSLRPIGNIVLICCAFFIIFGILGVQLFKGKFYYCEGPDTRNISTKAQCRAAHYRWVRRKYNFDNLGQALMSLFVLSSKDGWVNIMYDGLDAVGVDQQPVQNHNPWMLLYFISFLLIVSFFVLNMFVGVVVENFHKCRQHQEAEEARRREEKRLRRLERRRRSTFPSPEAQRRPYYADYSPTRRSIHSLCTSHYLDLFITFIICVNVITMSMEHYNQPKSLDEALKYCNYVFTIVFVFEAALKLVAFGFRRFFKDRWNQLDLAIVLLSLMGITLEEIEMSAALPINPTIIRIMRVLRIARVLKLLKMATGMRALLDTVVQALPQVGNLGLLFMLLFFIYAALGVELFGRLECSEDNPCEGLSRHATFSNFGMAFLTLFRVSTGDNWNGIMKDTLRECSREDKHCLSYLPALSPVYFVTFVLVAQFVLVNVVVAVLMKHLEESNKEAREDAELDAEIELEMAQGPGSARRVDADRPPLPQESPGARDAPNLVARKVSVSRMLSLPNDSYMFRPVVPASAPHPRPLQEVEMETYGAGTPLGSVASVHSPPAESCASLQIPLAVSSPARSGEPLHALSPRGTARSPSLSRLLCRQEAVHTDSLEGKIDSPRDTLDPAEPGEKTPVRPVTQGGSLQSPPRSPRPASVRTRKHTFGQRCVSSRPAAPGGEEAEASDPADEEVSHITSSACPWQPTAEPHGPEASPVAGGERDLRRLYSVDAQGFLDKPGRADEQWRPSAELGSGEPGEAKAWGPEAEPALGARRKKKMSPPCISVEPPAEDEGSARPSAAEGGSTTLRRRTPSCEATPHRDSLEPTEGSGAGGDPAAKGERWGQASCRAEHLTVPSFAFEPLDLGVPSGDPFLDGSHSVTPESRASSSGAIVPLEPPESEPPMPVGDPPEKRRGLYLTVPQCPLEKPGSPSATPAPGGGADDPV

Regarding `C[C@@H](NC(=O)C1CC1c1cn(C)c2ccccc12)c1ccc(OCC(F)(F)F)cn1` (stereo in doubt) [Example 106, trans-2-(1-methyl-1H-indol-3-yl)-N-((R)-1-(5-(2,2,2-trifluoroethoxy)pyridin-2-yl)ethyl)cyclopropanecarboxamide], the IC50 was at most 300 nM.
As to `C[C@@H](NC(=O)[C@H]1C[C@@H]1c1cccc2cc[nH]c12)c1ccc(OCC(F)(F)F)cn1` (relative stereo) [Example 275, (1S*,2S*)-2-(1H-indol-7-yl)-N-((R)-1-(5-(2,2,2-trifluoroethoxy)pyridin-2-yl)ethyl)cyclopropanecarboxamide], the concentration for half-maximal inhibition (IC50) was at most 300 nM.
`C[C@@H](NC(=O)C1CC1c1ccc2cnn(C)c2c1)c1ccc(OCC(F)(F)F)nc1` (stereo partly drawn) [Example 228, trans-2-(1-methyl-1H-indazol-6-yl)-N-((R)-(6-(2,2,2-trifluoroethoxy)pyridin-3-yl)ethyl)cyclopropanecarboxamide] came in with an IC50 of at most 300 nM.
The figure for `C[C@@H](NC(=O)[C@H]1C[C@@H]1c1ccc(F)cc1Cl)c1ccc(OCC2CC2)cn1` (relative stereo) [Example 261, (1S*,2S*)-2-(2-chloro-4-fluorophenyl)-N-((R)-1-(5-(cyclopropylmethoxy)pyridin-2-yl)ethyl)cyclopropanecarboxamide] is at most 300 nM; for `C[C@@H](NC(=O)[C@H]1C[C@@H]1c1cc2ccccc2[nH]1)c1ccc(OCC(F)(F)F)nc1` (relative stereo) [Example 223, (1S*,2S*)-2-(1H-indol-2-yl)-N-((R)-1-(6-(2,2,2-trifluoroethoxy)pyridin-3-yl)ethyl)cyclopropanecarboxamide] it is at most 300 nM; for `C[C@@H](NC(=O)[C@H]1C[C@@H]1c1c[nH]c2ccccc12)c1ccc(OCC(F)(F)F)cn1` (relative stereo) [Example 133, (1S*,2S*)-2-(1H-indol-3-yl)-N-((R)-1-(5-(2,2,2-trifluoroethoxy)pyridin-2-yl)ethyl)cyclopropanecarboxamide] it is at most 300 nM.
In turn, `C[C@@H](NC(=O)[C@H]1C[C@@H]1COc1ccccc1)c1cnc(OCC(F)(F)F)cn1` (relative stereo) [Example 318, (1S*,2S*)-2-(phenoxymethyl)-N-((R)-1-(5-(2,2,2-trifluoroethoxy)pyrazin-2-yl)ethyl)cyclopropanecarboxamide] showed a half-inhibitory concentration (IC50) of at most 300 nM.
In turn, `C[C@@H](NC(=O)[C@@H]1C[C@H]1c1ccc2cc[nH]c2c1)c1ccc(OCC(F)(F)F)cn1` (relative stereo) [Example 204, (1R*,2R*)-2-(1H-indol-6-yl)-N-((R)-1-(5-(2,2,2-trifluoroethoxy)pyridin-2-yl)ethyl)cyclopropanecarboxamide] registered an IC50 of at most 300 nM.
`COc1ccc([C@H]2C[C@@H]2C(=O)N[C@H](C)c2ccc(OCC(F)(F)F)cn2)cc1` (relative stereo) [Example 259, (1S*,2S*)-2-(4-methoxyphenyl)-N-((R)-1-(5-(2,2,2-trifluoroethoxy)pyridin-2-yl)ethyl)cyclopropanecarboxamide] gave a 50% inhibitory concentration (IC50) of at most 300 nM.
Compound `C[C@@H](NC(=O)[C@@H]1C[C@H]1c1nc2cc(F)ccc2[nH]1)c1ccc(OCC(F)(F)F)nc1` (relative stereo) [Example 289, (1R*,2R*)-2-(5-fluoro-1H-benzo[d]imidazol-2-yl)-N-((R)-1-(6-(2,2,2-trifluoroethoxy)pyridin-3-yl)ethyl) cyclopropanecarboxamide] came in with an IC50 of at most 300 nM.
`C[C@@H](NC(=O)[C@@H]1C[C@H]1c1cc2ccccc2[nH]1)c1cnc(OCC(F)(F)F)cn1` (relative stereo) [Example 226, (1R*,2R*)-2-(1H-indol-2-yl)-N-((R)-1-(5-(2,2,2-trifluoroethoxy)pyrazin-2-yl)ethyl)cyclopropanecarboxamide] yielded a 50% inhibitory concentration (IC50) of at most 300 nM.
`C[C@@H](NC(=O)C1CC1c1c[nH]c2c(F)cccc12)c1ccc(OCC(F)(F)F)cn1` (stereo in doubt) [Example 108, trans-2-(7-fluoro-1H-indol-3-yl)-N-((R)-1-(5-(2,2,2-trifluoroethoxy)pyridin-2-yl)ethyl)cyclopropanecarboxamide]: the IC50 was at most 300 nM.
The figure for `C[C@@H](NC(=O)[C@H]1C[C@@H]1c1ccccc1)c1ccc(OCC(F)(F)F)nc1` (relative stereo) [Example 284, (1S*,2S*)-2-phenyl-N-((R)-1-(6-(2,2,2-trifluoroethoxy)pyridin-3-yl)ethyl)cyclopropanecarboxamide] is at most 300 nM; for `C[C@@H](NC(=O)[C@@H]1C[C@H]1c1cccc2cc[nH]c12)c1ccc(OCC2CC2)cn1` (relative stereo) [Example 317, (1R*,2R*)-N-((R)-1-(5-(cyclopropylmethoxy)pyridin-2-yl)ethyl)-2-(1H-indol-7-yl)cyclopropanecarboxamide] it is at most 300 nM.
`C[C@@H](NC(=O)[C@H]1C[C@@H]1c1cccc2cc[nH]c12)c1ccc(OCC2CC2)cn1` (relative stereo) [Example 316, (1S*,2S*)-N-((R)-1-(5-(cyclopropylmethoxy)pyridin-2-yl)ethyl)-2-(1H-indol-7-yl)cyclopropanecarboxamide]: the 50% inhibitory concentration (IC50) was at most 300 nM.
For the compound `C[C@@H](NC(=O)[C@H]1C[C@@H]1c1cccc(OCc2ccccc2)c1)c1ccc(OCC(F)(F)F)cn1` (stereo in doubt) [Example 240, (1S*,2S*)-2-(3-(benzyloxy)phenyl)-N-((R)-1-(5-(2,2,2-trifluoroethoxy)pyridin-2-yl)ethyl)cyclopropanecarboxamide], the 50% inhibitory concentration (IC50) is at most 300 nM.
The same measure for `C[C@@H](NC(=O)C1CC1c1cc(F)cc(F)c1)c1cnc(OCC(F)(F)F)cn1` (stereo in doubt) [Example 194, trans-2-(3,5-difluorophenyl)-N-((R)-1-(5-(2,2,2-trifluoroethoxy)pyrazin-2-yl)ethyl)cyclopropanecarboxamide]: at most 300 nM; for `C[C@@H](NC(=O)C1CC1c1c[nH]c2cc(F)ccc12)c1ccc(OCC(F)(F)F)cn1` (stereo in doubt) [Example 168, trans-2-(6-fluoro-1H-indol-3-yl)-N-((R)-1-(5-(2,2,2-trifluoroethoxy)pyridin-2-yl)ethyl)cyclopropanecarboxamide]: at most 300 nM.
On to `C[C@@H](NC(=O)[C@@H]1C[C@H]1c1cccc2[nH]ccc12)c1cnc(OCC(F)(F)F)cn1` (relative stereo) [Example 279, (1R*,2R*)-2-(1H-Indol-4-yl)-N-((R)-1-(5-(2,2,2-trifluoroethoxy)pyrazin-2-yl)ethyl)cyclopropanecarboxamide], for which the half-inhibitory concentration (IC50) is at most 300 nM.
`C[C@@H](NC(=O)CCc1c[nH]c2ccccc12)c1ccc(OCC(F)(F)F)cn1` [Example 33, (R)-3-(1H-indol-3-yl)-N-(1-(5-(2,2,2-trifluoroethoxy)pyridin-2-yl)ethyl)propanamide] displayed a 50% inhibitory concentration (IC50) of at most 300 nM.
Turning to `C[C@@H](NC(=O)[C@@H]1C[C@H]1c1ccc2ccccc2n1)c1cnc(OCC(F)(F)F)cn1` (relative stereo) [Example 222, (1R*,2R*)-2-(quinolin-2-yl)-N-((R)-1-(5-(2,2,2-trifluoroethoxy)pyrazin-2-yl)ethyl)cyclopropanecarboxamide], the concentration for half-maximal inhibition (IC50) was at most 300 nM.
The same measure for `COc1ccc([C@H]2C[C@@H]2C(=O)N[C@H](C)c2cnc(OCC(F)(F)F)cn2)c(F)c1` (relative stereo) [Example 270, (1S*,2S*)-2-(2-fluoro-4-methoxyphenyl)-N-((R)-1-(5-(2,2,2-trifluoroethoxy)pyrazin-2-yl)ethyl)cyclopropanecarboxamide]: at most 300 nM; for `C[C@@H](NC(=O)C1CC1c1cc2cc(F)ccc2[nH]1)c1ccc(OCC2CC2)cn1` (stereo in doubt) [Example 181, trans-N-((R)-1-(5-(cyclopropylmethoxy)pyridin-2-yl)ethyl)-2-(5-fluoro-1H-indol-2-yl)cyclopropanecarboxamide]: at most 300 nM.
`C[C@@H](NC(=O)[C@H]1C[C@@H]1c1ccc2cnn(C)c2c1)c1ccc(OCC(F)(F)F)cn1` (relative stereo) [Example 227, (1S*,2S*)-2-(1-methyl-1H-indazol-6-yl)-N-((R)-1-(5-(2,2,2-trifluoroethoxy)pyridin-2-yl)ethyl)cyclopropanecarboxamide] came in with an IC50 of at most 300 nM.
The figure for `C[C@@H](NC(=O)C1CC1c1ccc2cnn(C)c2c1)c1cnc(OCC(F)(F)F)cn1` (stereo partly drawn) [Example 229, trans-2-(1-methyl-1H-indazol-6-yl)-N-((R)-1-(5-(2,2,2-trifluoroethoxy)pyrazin-2-yl)ethyl)cyclopropanecarboxemide] is at most 300 nM.
With `C[C@@H](NC(=O)[C@H]1C[C@@H]1COc1ccc(F)cc1)c1ccc(OCC(F)(F)F)cn1` (relative stereo) [Example 296, (1S*,2S*)-2-((4-fluorophenoxy)methyl)-N-((R)-1-(5-(2,2,2-trifluoroethoxy)pyridin-2-yl)ethyl)cyclopropanecarboxamide], the IC50 is at most 300 nM.
